Assay [1] has as its system Mycobacterium tuberculosis. Briefly: Antitubercular activity against Mycobacterium tuberculosis H37Rv ATCC 27294 cultured in GAS media assessed as reduction in bacterial growth incubated for 7 days by resazurin dye fluorescence based assay. The assay is classed as functional. The conditions noted are these: H37Rv ATCC 27294, 168 h, time 7 day.
The test system of another assay is Vero. Briefly: Cytotoxicity against African green monkey Vero cells assessed by reduction in cell viability incubated for 72 hrs by resazurin dye fluorescence based assay. The settings on record: Chlorocebus sabaeus. (Resazurin is reduced to fluorescent resorufin, in cell work by metabolically active cells.)
Assay [2] concerns Mycobacterium tuberculosis. The assay is described as follows: Antitubercular activity against Mycobacterium tuberculosis H37Rv ATCC 27294 cultured in 7H12 media assessed as reduction in bacterial growth incubated for 7 days by resazurin dye fluorescence based assay. The assay is classed as functional. The settings on record: H37Rv ATCC 27294, 168 h, time 7 day.
For assay [3], the target named is T1, Decaprenylphosphoryl-beta-D-ribose oxidase (Mycobacterium tuberculosis (strain ATCC 25618 / H37Rv)) (UniProt P9WJF1).
T1 sequence (whole entry): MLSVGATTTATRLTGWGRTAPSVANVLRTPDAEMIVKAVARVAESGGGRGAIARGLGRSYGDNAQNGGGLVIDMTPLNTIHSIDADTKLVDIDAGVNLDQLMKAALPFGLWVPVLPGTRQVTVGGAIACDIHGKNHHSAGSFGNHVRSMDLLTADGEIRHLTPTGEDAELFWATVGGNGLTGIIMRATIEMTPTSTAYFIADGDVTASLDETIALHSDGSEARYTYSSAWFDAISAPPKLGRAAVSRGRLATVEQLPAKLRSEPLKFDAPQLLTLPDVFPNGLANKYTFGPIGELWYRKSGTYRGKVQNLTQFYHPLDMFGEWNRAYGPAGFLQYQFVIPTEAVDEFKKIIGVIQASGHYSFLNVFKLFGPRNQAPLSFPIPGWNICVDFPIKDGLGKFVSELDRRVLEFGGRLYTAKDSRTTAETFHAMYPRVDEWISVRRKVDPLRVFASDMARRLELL
The assay is described as follows: Inhibition of Mycobacterium tuberculosis H37Rv DprE1 at 100 times of MIC incubated for 24 hrs by [14C]-acetate radioligand based thin layer chromatography.

A further assay deals with Mycolicibacterium vaccae. The assay is described as follows: Antitubercular activity against Mycobacterium vaccae assessed as reduction in bacterial growth incubated for 42 hrs by broth microdilution assay. The assay is classed as functional. (In general: Broth dilution looks for growth in wells or tubes with falling amounts of substance.)
Assay [4] has as its target T1, Decaprenylphosphoryl-beta-D-ribose oxidase (Mycobacterium tuberculosis (strain ATCC 25618 / H37Rv)). Briefly: Inhibition of reactivation of Mycobacterium tuberculosis H37Rv DprE1 at 100 times of MIC incubated for 24 hrs by [14C]-acetate radioligand based thin layer chromatography.
For a further assay, the system named is Mycolicibacterium aurum. The assay is described as follows: Antitubercular activity against Mycobacterium aurum assessed as reduction in bacterial growth incubated for 42 hrs by broth microdilution assay. The assay is classed as functional.

In ChEMBL document CHEMBL4673200, “Hydride-induced Meisenheimer complex formation reflects activity of nitro aromatic anti-tuberculosis compounds” (RSC Med Chem, 2021) one finds MIC, IC50 and inhibition data, which are given here for 24 molecules.

≈ marks a conversion by molar mass, not a printed value. Calls of active or inactive are those of the source. The calls are words filed in the database; no cut-off is given here. A value given as a limit tells only on which side of the number the result lay.

As usually defined, the MIC is the lowest concentration found to suppress growth. The IC50 is the concentration at which inhibition is half-maximal. Take `C[C@H]1COC2(CCN(c3ccc([N+](=O)[O-])cc3C#N)CC2)O1`: the values for the MIC in assay [1] and in assay [2] were 2 µM (≈ 0.607 µg/mL) and 2.4 µM (≈ 0.728 µg/mL), respectively. In the assay with Vero, this molecule returned an IC50 of over 100 µM.

Consider `O=C(NCc1ccc(N2CCC(c3ccc(OC(F)(F)F)cc3)CC2)cc1)c1nc2cc(C(F)(F)F)cc([N+](=O)[O-])c2s1`, for which the inhibition result in assay [3] is “Active”. Also, the MIC is 0.125 µM (≈ 0.0781 µg/mL) in the assay with Mycolicibacterium vaccae, 0.13 µM (≈ 0.0812 µg/mL) in assay [1], over 1 µM in the assay with Mycolicibacterium aurum and 0.24 µM (≈ 0.15 µg/mL) in assay [2]. The inhibition entry in assay [4] was “inactive”. For the same molecule, the IC50 with Vero is over 100 µM.

For `N#Cc1cc([N+](=O)[O-])ccc1NCc1ccccn1`, the MIC in assay [1] and in assay [2] was over 5 µM throughout. The IC50 with Vero was over 100 µM.

Take `COc1ccc(CNC(=O)c2sc3c([N+](=O)[O-])cc(C(F)(F)F)cc3[n+]2[O-])cc1`: the MIC in the assay on Mycolicibacterium vaccae is under 0.001 µM; in assay [1], 0.01 µM (≈ 0.00427 µg/mL); with Mycolicibacterium aurum, over 1 µM; in assay [2] it was 0.01 µM (≈ 0.00427 µg/mL). This molecule yielded an IC50 in the assay with Vero of 76 µM.

`CC(C)(C)OC(=O)N1CCC(Oc2ccc(Nc3ccc([N+](=O)[O-])cc3C#N)cc2)CC1`: the MIC in assay [1] is 3 µM (≈ 1.32 µg/mL); in assay [2], over 5 µM. Moreover, the IC50 in the assay on Vero is over 100 µM.

Take `N#Cc1cc([N+](=O)[O-])ccc1-n1cnc2c(N)ncnc21`: the MIC in assay [1] and in assay [2] was over 5 µM each time. Besides, in the assay on Vero, the IC50 was over 100 µM.

With `C[C@H]1COC2(CCN(C(=O)c3sc4c([N+](=O)[O-])cc(C(F)(F)F)cc4[n+]3[O-])CC2)O1`, the inhibition entry in assay [3] is “Active”. Also, the MIC in the assay on Mycolicibacterium vaccae was 0.015 µM (≈ 0.00671 µg/mL); in assay [1], 0.24 µM (≈ 0.107 µg/mL); in the assay with Mycolicibacterium aurum, over 1 µM; in assay [2], 0.23 µM (≈ 0.103 µg/mL). The IC50 in the assay with Vero stood at 79.6 µM.

For the molecule `O=c1nc(N2CCN(CC3CCCCC3)CC2)sc2c([N+](=O)[O-])cc(C(F)(F)F)cc12`, in assay [3], the inhibition result was “Active”.

Regarding `N#Cc1cc([N+](=O)[O-])ccc1Nc1ccc(OC2CCNCC2)cc1`, the MIC in assay [1] and in assay [2] was over 5 µM each time. In the assay on Vero, this molecule gave an IC50 of over 100 µM.

On to `COc1ccc(CNC(=O)c2nc3cc(C(F)(F)F)cc([N+](=O)[O-])c3s2)cc1`, for which the inhibition result in assay [3] is “Active”. Also, the MIC in the assay on Mycolicibacterium vaccae is 0.008 µM (≈ 0.00329 µg/mL); in assay [1], 0.14 µM (≈ 0.0576 µg/mL); in the assay on Mycolicibacterium aurum, over 1 µM; in assay [2], 0.7 µM (≈ 0.288 µg/mL). Moreover, the inhibition entry in assay [4] is “inactive”. Further, the IC50 with Vero is over 100 µM.

`C[C@H]1COC2(CCN(c3nc(=O)c4cc(C(F)(F)F)cc([N+](=O)[O-])c4s3)CC2)O1` [BTZ-043]: the inhibition result in assay [3] is “Active”. Moreover, the MIC in the assay on Mycolicibacterium vaccae was under 0.001 µM; in assay [1] it was under 0.004 µM; with Mycolicibacterium aurum, over 1 µM; in assay [2], under 0.004 µM. The molecule also showed an IC50 in the assay on Vero of over 100 µM.

Consider `O=C(NCc1ccc(N2CCC(c3ccc(OC(F)(F)F)cc3)CC2)cc1)c1sc2c([N+](=O)[O-])cc(C(F)(F)F)cc2[n+]1[O-]`, for which the MIC was 0.02 µM (≈ 0.0128 µg/mL) with Mycolicibacterium vaccae, 0.07 µM (≈ 0.0448 µg/mL) in assay [1], over 1 µM in the assay with Mycolicibacterium aurum and 0.025 µM (≈ 0.016 µg/mL) in assay [2]. The same molecule came in with an IC50 in the assay on Vero of 81 µM.

In the case of `NC(=O)c1sc2c([N+](=O)[O-])cc(C(F)(F)F)cc2[n+]1[O-]` [CYCLAPOLIN 9], the MIC in assay [1] came to 2.19 µM (≈ 0.673 µg/mL); in assay [2], 1.2 µM (≈ 0.369 µg/mL).

As for `N#Cc1cc([N+](=O)[O-])ccc1Oc1ccc(Cl)c(Cl)c1`, the MIC in assay [1] is 45 µM (≈ 13.9 µg/mL); in assay [2], over 50 µM. In addition, the IC50 in the assay on Vero was over 50 µM.

As for `O=[N+]([O-])c1cn2c(n1)OC[C@@H](OCc1ccc(OC(F)(F)F)cc1)C2` [PRETOMANID], the MIC was 0.2 µM (≈ 0.0719 µg/mL) in assay [1] and 0.08 µM (≈ 0.0287 µg/mL) in assay [2]. The same molecule gave an IC50 with Vero of over 100 µM.

In the case of `CC(Nc1ccc([N+](=O)[O-])cc1C#N)c1ccc(Cl)cc1` (stereo not given), the MIC in assay [1] is 5 µM (≈ 1.51 µg/mL); in assay [2], over 5 µM. In addition, it took 29 µM to reach half-maximal inhibition in the assay with Vero (IC50).

As for `CCOC(=O)c1sc2c([N+](=O)[O-])cc(C(F)(F)F)cc2[n+]1[O-]`, the MIC in assay [1] was 4.97 µM (≈ 1.67 µg/mL); in assay [2], over 5 µM.

In the case of `O=C(NCc1ccc2c(c1)CCO2)c1sc2c([N+](=O)[O-])cc(C(F)(F)F)cc2[n+]1[O-]`, the MIC in the assay with Mycolicibacterium vaccae is under 0.001 µM; in assay [1], under 0.002 µM; in the assay with Mycolicibacterium aurum, over 1 µM; in assay [2], 0.01 µM (≈ 0.00439 µg/mL). The IC50 in the assay on Vero is over 100 µM.

Consider `N#Cc1cc([N+](=O)[O-])ccc1N1CCC(Cc2ccccc2)CC1`, for which the MIC was 2 µM (≈ 0.643 µg/mL) in assay [1] and over 5 µM in assay [2]. This molecule also had an IC50 in the assay with Vero of over 100 µM.

For the molecule `CCc1nc2ccc(Cl)cn2c1C(=O)NCc1ccc(N2CCC(c3ccc(OC(F)(F)F)cc3)CC2)cc1` [TELACEBEC], the MIC in the assay on Mycolicibacterium vaccae was 0.004 µM (≈ 0.00223 µg/mL); in assay [1] it was 0.007 µM (≈ 0.0039 µg/mL); in the assay on Mycolicibacterium aurum it was over 1 µM; in assay [2], 0.03 µM (≈ 0.0167 µg/mL). The IC50 in the assay with Vero is over 100 µM.

For the molecule `N#Cc1cc([N+](=O)[O-])ccc1N1CCN(c2ccc(C(F)(F)F)cc2)CC1`, the MIC in assay [1] is 5 µM (≈ 1.88 µg/mL); in assay [2], over 5 µM. The IC50 in the assay with Vero was over 100 µM.

Regarding `N#Cc1cc([N+](=O)[O-])ccc1NCc1cccc(F)c1`, the MIC in assay [1] is 5 µM (≈ 1.36 µg/mL); in assay [2], over 5 µM. Also, the IC50 with Vero was over 100 µM.

On to `COc1ccc(CNc2ccc([N+](=O)[O-])cc2C#N)cc1`, for which the MIC in assay [1] and in assay [2] was over 5 µM in each case. In addition, in the assay with Vero, the IC50 is over 100 µM.

Consider `N#Cc1cc([N+](=O)[O-])ccc1NC1CC1`, for which the MIC in assay [1] and in assay [2] was over 5 µM in each case. The molecule further gave an IC50 in the assay on Vero of over 100 µM.
